Results on 1 substance are retold here after paper PMC6930223 (Scientific Reports, 2019).

Series [1] has as its system hERG1b protein (fg 95 kDa, cg 80 kDa). The series is described as follows: Western blot protein expression in HEK293-hERG1a/1b cells. In kind it is cell-based, human. The note with it: all concentrations, 24 h. How it is done: (§1) Total protein was isolated using RIPA lysis buffer system (Santa Cruz Biotechnology, Inc., USA). Equal amounts of protein samples were loaded onto 7.5% (v/v) polyacrylamide gels and were subsequently transferred to Immobilon®-P PVDF membrane (Millipore, USA) using Trans-Blot® Turbo™ Blotting System (Bio-Rad Laboratories, USA). Blots were blocked with 3% (w/v) skim milk for 1 h and probed with optimized primary antibodies against hERG1a (1:5000), hERG1b (1:1250), Hsp70 (1:10, 000), Hsp90 (1:5000) and β-actin (1:5000) overnight at 4 °C. Finally, the blots were then incubated in horseradish peroxidase (HRP) conjugated secondary antibody (1:1000) for 2.5 h followed by Clarity™ Western ECL substrate (Bio-Rad Laboratories, USA). The antibodies used for Western blotting were rabbit hERG1a polyclonal antibody (Enzo Life Sciences, USA), rabbit hERG1b polyclonal antibody (Enzo Life Sciences, USA), rabbit Hsc70/Hsp70 polyclonal antibody (Enzo Life Sciences, USA), rabbit Hsp90 polyclonal antibody (Enzo Life Sciences, USA), rabbit β-actin antibody (Cell Signaling, USA) and anti-rabbit IgG HRP-linked antibody (Cell Signaling, USA). Chemiluminescence signal was detected using ChemiDoc™ XRS Imaging System (Bio-Rad Laboratories, USA). Band densities were scanned and quantified using Image Lab Software (Bio-Rad Laboratories, USA). The signal for each protein band was normalized to the reference protein, β-actin. Experiments were conducted in duplicate and represented as mean fold changes of three independent experiments.
On the technique in general: A western blot detects proteins with antibodies after separation by electrophoresis.

Series [2] concerns hERG1a protein (fg 155 kDa, cg 135 kDa). Described as above. The format is cell-based, human. The note with it: 24 h. Here is the method:
as §1

In the next series the test system is CYP2D6. The note with it: cited from earlier work.
Another series deals with HEK293-hERG1a/1b cells. The series is described as follows: Cell proliferation assay (CellTiter 96 AQueous One), 72 h. In kind it is cell-based, human. How it is done: Trypan blue exclusion test was carried out to determine the effect of transfection on HEK293-hERG1a/1b cell viability. Briefly, cell suspension was mixed with 0.4% (v/v) trypan blue solution in a ratio of 1:1 and the viability of the cells were analyzed using Countess® II FL automated cell counter (Invitrogen, USA). For cell proliferation assay, cells were first seeded at a density of 5000 cells/well onto two 96-well plates (T0 and T1) and were incubated at 37 °C for 24 h in a humidified incubator supplemented with 5% (v/v) CO2. Subsequently, cells in T0 plate were subjected to cell proliferation assay as described previously. Meanwhile, cells in T1 plate were cultured in reduced serum medium (0.5% v/v FBS) for 4 h and treated with various concentrations of mitragynine. After 72 h, cell proliferation was determined using CellTiter 96® AQueous One Solution Cell Proliferation Assay (Promega, USA) following manufacturer’s protocol. Cell proliferation results were expressed as percentage growth (PG)[65]. The response parameters GI50 (half maximal growth inhibitory concentration), TGI (total growth inhibition) and LC50 (half maximal lethal concentration) values were derived from a non-linear regression model (curvefit) based on dose response-inhibition curve and computed using GraphPad Prism® 5.01 (GraphPad Software, USA). The GI50, TGI and LC50 are interpolated values representing the concentrations at which the PG is +50, 0 and −50 respectively. Data are presented as mean PG for three independent experiments.

Another series relates to Hsp70. The series is described as follows: Western blot of endogenous chaperone expression in HEK-hERG1a/1b cells. The note with it: exposure for 24 h. In kind it is cell-based, human. How it is done:
as §1, with “The signal for each protein band was normalized to the reference protein, β-actin. Experiments were conducted in duplicate and represented as mean fold changes of three independent experiments.” left out

The test system of the next series is Hsp90. The series is described as above. In kind it is cell-based, human. The note with it: exposure for 24 h. Here is the method:
as §1, with “The signal for each protein band was normalized to the reference protein, β-actin. Experiments were conducted in duplicate and represented as mean fold changes of three independent experiments.” left out

Another series has as its system hERG1a mRNA. Put plainly: RT-qPCR mRNA expression in HEK293-hERG1a/1b cells. The note with it: all concentrations, 24 h at 37 °C. The format is cell-based, human. Here is the method:
(§2) Briefly, total cellular RNA was isolated from treated cells using RNeasy® Plus Mini kit (Qiagen, Germany) following manufacturer’s instruction. The optimized RT-qPCR assay was performed using CFX96™ real-time PCR system (Bio-Rad Laboratories Inc., USA) with the following cycle parameters: 10 min at 50 °C for reverse transcription, 1 min at 95 °C for activation of Taq polymerase, followed by 40 cycles of 10 s at 95 °C for denaturation and 30 s at 53.9 °C for annealing and data acquisition. Specifically, the assay was performed using 100 ng of total RNA and iTaq™ Universal SYBR® Green One-Step Kit (Bio-Rad Laboratories Inc., USA) in 10 µl of reaction volume. A melt curve analysis was computed at the end of the qPCR cycles to determine the specificity of the primers. The results were analyzed using CFX Manager software version 3.1 (Bio-Rad Laboratories Inc., USA). The mRNA expressions of hERG1a/1b were presented as fold changes normalized to endogenous reference genes, ACTB and GAPDH, and relative to the control gene[69]–[71]. Each experiment was conducted in triplicate and data are presented as mean fold changes of three independent experiments.
In general terms: In qPCR the cycle at which signal appears reflects the starting amount.

The next series has as its system hERG1b mRNA. The series is described as follows: RT-qPCR mRNA expression in HEK293-hERG1a/1b cells. The note with it: all concentrations, 24 h at 37 °C. The format is cell-based, human. How it is done:
as §2

Turning to mitragynine, in series [1], the cg-hERG1b protein expression result was “no significant changes” and the fg-hERG1b protein expression entry is recorded as “no significant changes”. In addition, in series [2] (10 µM, vs untreated control), the “increase of cg-hERG1a expression” value is listed as roughly 50% and the “reduction of fg-hERG1a expression” value is given as “approximately 22.3%”. For the same substance, in series [2] (0.001–1 µM), the “expression of cg-hERG1a” value is listed as “unaffected” and the “protein expression of fg-hERG1a” value was “no clear pattern”. For the same substance, the “effect on CYP2D6” value in the series with CYP2D6 is “potent inhibitory activity”. In the series with HEK293-hERG1a/1b cells, the GI50 came out at 30.2 µM, the LC50 worked out at 85.1 µM and the TGI amounted to 57.68 µM. In addition, the Hsp70 levels entry with Hsp70 is recorded as “neither Hsp70 nor Hsp90 levels were significantly altered”. In addition, the Hsp90 levels result in the series with Hsp90 was “neither Hsp70 nor Hsp90 levels were significantly altered”. Further, the “effect on mRNA expression of hERG1a” value in the series with hERG1a mRNA is given as “did not affect”. Besides, the “effect on mRNA expression of hERG1b” value with hERG1b mRNA is given as “did not affect”.

As a reminder, the GI50 is the concentration giving 50% growth inhibition. Low values mean greater sensitivity of the cells, high ones lower sensitivity of the cells. The LC50 is the concentration lethal to half of the exposed cells or organisms. Lower therefore signals greater toxicity. Usually TGI stands for the concentration at which net growth stops. A higher TGI goes with lower sensitivity of the cells.
